In patent publication US20200345733A1, “Microbicidal Pyrimidine or Triazine Containing Compounds” (Janssen Sciences Ireland UC, priority 2002, published 2020):
Values after ≈ are worked out from the molar mass of the structure shown. Read-outs that look alike come from different tables or passages of the source.

Key:
HIV Ba-L = assay: Prevention of HIV Ba-L infection in MO-DC/CD4(+) T cell co-cultures (ELISA, secondary culture, PCR); type: cell-based; conditions: for HIV Antigen (number of positive wells) 2° Cult. / HIV proviral DNA (2° Cult.) / HIV Antigen (number of positive wells) 1° Cult.: cell-associated HIV Ba-L; for HIV Antigen (number of positive wells) 2° Cult.: 2° culture without drug, out of 6; for HIV proviral DNA (2° Cult.): PCR after secondary culture; for HIV Antigen (number of positive wells) 1° Cult.: continuous drug, out of 6 microcultures; for EC50: Human immunodeficiency virus 1, BAL, T-cell, MO-DC/CD4(+) T cells, read-out: EC50 (inhibiting 50% of HIV Ba-L replication)
Procedure: (§1) For experiments with CEM T cells, we used the lymphotropic SI/X4 HIV strain HTLV-IIIB, originally obtained from R. C. Gallo and M. Popovic (NIH, Bethesda, Md.). For experiments with monocyte-derived dendritic cells (MO-DC), the monotropic NSI/R5 HIV strain Ba-L, kindly provided by the NIH AIDS Research and Reference Reagent Program (Rockville, Md) was used. Ba-L stocks were grown and tittered on PHA/IL-2-stimulated peripheral blood mononuclear cells (PBMC) in complete medium, containing RPMI-1640 (Bio-Whittaker, Verviers, Belgium) and 10% bovine calf serum (Hyclone, Utah, US) (Peden K. Virological and Molecular Genetic Techniques for Studies of Established HIV Isolates. 1995, 21-45). The supernatant of these cultures were directly used as cell-free virus to infect MO-DC. To prepare cell-associated HIV Ba-L, non-stimulated PBMC (2×10^6 cells/ml) were incubated overnight with 10^−2 MOI (=multiplicity of infection) of HIV Ba-L in complete medium. Afterwards, cells were extensively washed, frozen in liquid nitrogen and thawed on the day of infection.
HIV antigen was detected using an in-house developed ELISA assay, of which the characteristics have been described (Beirnaert E, Willems B, Peeters M, Bouckaert A, Heyndrickx L, Zhong P et al. Design and Evaluation of an in-House HIV-1 (Group M and O), SIVmnd and SIVcpz Antigen Capture Assay. J Virol Methods 1998, 73: 65-70). The lower detection limit is about 200 pg/ml and the upper limit is about 25,000 pg/ml, as determined using a standard curve of Ba-L stock dilutions with known p24 content. The 50% Effective Concentration (EC50) was calculated by plotting HIV Ag concentration against drug concentration, followed by regression analysis on the linear part of the curve,
Cell-free HIV Ba-L was pre-incubated with a serial dilution of drug, ranging from 10,000 to 0.1 nM (final concentration), for 1 hour at 37° C. MO-DC were infected with drug-treated HIV at a multiplicity of infection (MOI) of 10^−3. After 2 hours (at 37° C.), MO-DC were washed (6×) and suspended at 4×10^5 cells/ml. 50 μl of MO-DC were dispensed in a 96-well cup, together with 50 μl of autologous CD4(+) T cells (2×10^6 cells/ml) and 100 μl of complete medium or 100 μl of drug (at the same concentration as for the pre-incubation). Half of the culture medium was refreshed twice weekly with complete medium, with or without drug. After 2 weeks of primary culture, supernatants were analysed by ELISA and cells were used for secondary cultures to check viral rescue. For experiments with cell-associated HIV, a similar set-up was used except that pre-incubated, cell-associated virus was washed before addition of MO-DC/CD4(+) T cells and remained present during the MO-DC/CD4(+) T cell co-culture.
To evaluate the effect of a 24-hours treatment, MO-DC and autologous CD4(+) T cells were suspended in complete medium at 4×10^4, resp. 2×10^5 cells/ml. Fifty μl of MO-DC and 50 μl of CD4(±) T cells were dispensed in a 96-well cup, together with 50 μl of cell-associated or cell-free virus (10^−3 MOI) and 50 μl of complete medium or 50 μl of a serial dilution of drug. After 24-hours (37° C., 5% CO2), cells were washed (3×) and incubated for 2 weeks. Half of the culture medium was refreshed twice weekly with complete medium (without drug). After 2 weeks of primary culture, supernatants were analysed by ELISA and cells were used for secondary cultures to check viral rescue.
PBMC were isolated from donor buffy coats and cultured for 2 days in complete medium supplemented with 5 ng/ml IL-2 (Immunosource, Zoersel, Belgium) and 0.5 μg/ml PHA (Murex, Dartford, England). After 2 weeks of primary culture, MO-DC/CD4(+) T cell co-cultures were washed (3×) and secondary cultures were set-up by adding 1×10^5 PHA/IL-2 activated PBMC per cup. Half of the culture medium was replaced every 3-4 days with IL-2 containing medium (without drug) and supernatants as well as cells were harvested after 2 additional weeks. Supernatants were tested for HIV-Ag in ELISA. […]

Hemophilus ducreyi = assay: In vitro antibacterial activity, Hemophilus ducreyi; type: cell-based
Description: Compatibility with lactobacilli and normal vaginal flora is an important requirement for a vaginal microbicide. Activity on pathogens of sexual transmitted diseases is an additional advantage. In in vitro tests for antibacterial activity of compound B, the following susceptibilities were found: • 33 different Lactobacillus species isolated from recto-vaginal cultures of pregnant women were studied.

[1] = system: HTLV-IIIb infected CEM T cells; assay: Antiviral activity in HTLV-IIIB infected CEM T cells (syncytium formation); type: cell-based, HIV; conditions: Human immunodeficiency virus 1, T-cell, continuous treatment, 50% inhibition of syncytium formation in CEM T cells
Procedure: as §1
As a reference system, CEM T cells (obtained from the American Type culture Collection in Rockville, Md.) were used under previously standardized conditions (Balzarini J, et al. AIDS Res Hum Retroviruses 10 Apr. 2000, 16: 517-528). […]

[2] = Continuous treatment, Cell-associated HIV
[3] = Continuous treatment, Cell-free HIV

Cc1cc(C)c(Nc2ccnc(Nc3ccc(C#N)cc3)n2)c(C)c1 [compound B, 4-[[4-[(2,4,6-trimethylphenyl)amino]-2-pyrimidinyl]amino]benzonitrile]
HIV Antigen (number of positive wells) 2° Cult. (HIV Ba-L; 10 nM in 1° culture): 3
HIV proviral DNA (2° Cult.) (HIV Ba-L; 10 nM): 4.74 Log(number of DNA copies/10^6 cells)
HIV Antigen (number of positive wells) 1° Cult. (HIV Ba-L; 10 nM): 0
HIV Antigen (number of positive wells) 2° Cult. (HIV Ba-L; 100 nM in 1° culture): 0
HIV proviral DNA (2° Cult.) (HIV Ba-L; 100 nM): Neg
HIV Antigen (number of positive wells) 1° Cult. (HIV Ba-L; 100 nM): 0
HIV Antigen (number of positive wells) 2° Cult. (HIV Ba-L; 1,000 nM in 1° culture): 0
HIV proviral DNA (2° Cult.) (HIV Ba-L; 1,000 nM): Neg
HIV Antigen (number of positive wells) 1° Cult. (HIV Ba-L; 1,000 nM): 0
HIV Antigen (number of positive wells) 2° Cult. (HIV Ba-L; 10,000 nM in 1° culture): 0
HIV proviral DNA (2° Cult.) (HIV Ba-L; 10,000 nM): Neg
HIV Antigen (number of positive wells) 1° Cult. (HIV Ba-L; 10,000 nM): 0
Conc. that prevents replicative HIV infection (ELISA and PCR after 2° culture) (HIV Ba-L; 24 Hours treatment, Cell-associated HIV): 1,000 nM
Conc. that prevents replicative HIV infection (ELISA and PCR after 2° culture) (HIV Ba-L; 24 Hours treatment, Cell-free HIV): 100 nM
Conc. that prevents replicative HIV infection (ELISA and PCR after 2° culture) (HIV Ba-L; [2]): 100 nM
Conc. that prevents replicative HIV infection (ELISA and PCR after 2° culture) (HIV Ba-L; [3]): 10 nM
EC50 (HIV Ba-L; 24 h, 24 hours treatment, Cell-associated HIV): 0.063 µM
EC50 (HIV Ba-L; 24 h, 24 hours treatment, Cell-free HIV): 0.042 µM
EC50 (HIV Ba-L; [2]): < 0.001 µM
EC50 (HIV Ba-L; [3]): < 0.0001 µM
Concentration that blocked infection in the primary cultures (HIV Ba-L; cell-associated virus, continuous treatment, primary culture only): 10 nM
MIC50 (Hemophilus ducreyi): 1 µg/mL (≈ 3.04 µM)
MIC50 (Hemophilus ducreyi; second value): 2 µg/mL (≈ 6.07 µM)
EC50 [1]: 0.001 µM
